Data published in patent publication US11767323B2, “Tricyclic pyridone compounds as JAK2 V617F inhibitors” (Incyte Corporation, priority 2020, dated 2023).

How the values were obtained:
[1] = target: catalytic domain (JH1, amino acids 826-1132) of human JAK2 (Homo sapiens (Human), UniProt O60674); test: JAK2 LanthaScreen JH1 Binding Assay; conditions: JAK2 JH1 1.5 nM, 50 nM tracer, 2 hours at 25° C.; read-out: JH1 BIND IC50
Protocol: Example A. JAK2 LanthaScreen JH1 Binding Assay
JAK2 JH1 binding assay utilizes catalytic domain (JH1, amino acids 826-1132) of human JAK2 expressed as N-terminal FLAG-tagged, biotinylated protein in a baculovirus expression system (Carna Biosciences, Product #08-445-20N). The assay was conducted in black 384-well polystyrene plates in a final reaction volume of 20 μL. JAK2 JH1 (1.5 nM) was incubated with compounds (100 nL serially diluted in DMSO) in the presence of 50 nM Fluorescent JAK2-JH1 Tracer and 0.5 nM Streptavidin-Tb cryptate (Cisbio Part #610SATLB) in assay buffer (50 mM Tris, pH=7.5, 10 mM MgCl2, 0.01% Brij-35, 0.1% BSA, 1 mM EGTA, 5% Glycerol and 5 mM DTT). Non-specific binding was accessed in the presence of 2 mM ATP. After incubation for 2 hours at 25° C., LanthaScreen signals were read on a PHERAstar FS plate reader (BMG LABTECH). Data was analyzed with IDBS XLfit and GraphPad Prism 5.0 software using a four parameter dose response curve to determine IC50 for each compound.

[2] = target: pseudo-kinase domain (JH2, amino-acids 536-812) of human Wild Type JAK2 (Homo sapiens (Human), UniProt O60674, F794H/W659A/W777A); test: JAK2 LanthaScreen JH2-WT Binding Assay; conditions: JAK2 JH2-WT 0.145 nM, 50 nM tracer, 1 hour at 25° C.; read-out: JH2 BIND WT IC50
Protocol: Example B. JAK2 LanthaScreen JH2-WT Binding Assay
(§1) JAK2 JH2-WT binding assay utilizes pseudo-kinase domain (JH2, amino-acids 536-812 with 3 surface mutations W659A, W777A, F794H) of human Wild Type JAK2 expressed as C-terminal His-Avi-tagged, biotinylated protein in a baculovirus expression system (BPS Bioscience, Catalog #79463). The assay was conducted in black 384-well polystyrene plates in a final reaction volume of 20 μL. JAK2 JH2-WT (0.145 nM) was incubated with compounds (100 nL serially diluted in DMSO) in the presence of 50 nM Fluorescent JAK2-JH2 Tracer (MedChem Express Catalog #HY-102055) and 0.25 nM Streptavidin-Tb cryptate (Cisbio Part #610SATLB) in assay buffer (50 mM Tris, pH=7.5, 10 mM MgCl2, 0.01% Brij-35, 0.1% BSA, 1 mM EGTA, 5% Glycerol and 5 mM DTT). Non-specific binding was accessed in the presence of 2 mM ATP. After incubation for 1 hour at 25° C., LanthaScreen signals were read on a PHERAstar FS plate reader (BMG LAB TECH). Data was analyzed with IDBS XLfit and GraphPad Prism 5.0 software using a four parameter dose response curve to determine IC50 for each compound.

[3] = target: pseudo-kinase domain (JH2, amino-acids 536-812) of human V617F mutant JAK2 (Homo sapiens (Human), UniProt O60674, F794H/V617F/W659A/W777A); test: JAK2 LanthaScreen JH2-V617F Binding Assay; conditions: JAK2 JH2-V617F 0.26 nM, 50 nM tracer, 1 hour at 25° C.; read-out: JH2 BIND V617F IC50
Protocol: Example C. JAK2 LanthaScreen JH2-V617F Binding Assay
as §1, with “JH2-V617F” for “JH2-WT”, “V617F mutant” for “Wild Type”, “#79498).” for “#79463).”, “JH2-V617F (0.26” for “JH2-WT (0.145”, “LABTECH).” for “LAB TECH).”

[4] = target: catalytic domain (JH1, amino acids 808-1132) of human JAK2 (Homo sapiens (Human), UniProt O60674); test: JAK2 HTRF Enzyme Activity Assay; type: biochemical; conditions: JAK2 0.015 nM, ATP (30 μM or 1 mM), 60 minutes at 25° C.
Protocol: Example D. JAK2 HTRF Enzyme Activity Assay
JAK2 enzyme activity assays utilize catalytic domain (JH1, amino acids 808-1132) of human JAK2 expressed as N-terminal His-tagged protein in a baculovirus expression system (BPS Bioscience, Catalog #40450). The assays was conducted in black 384-well polystyrene plates in a final reaction volume of 20 μL. JAK2 (0.015 nM) was incubated with compounds (100 nL serially diluted in DMSO) in the presence of ATP (30 μM or 1 mM) and 500 nM Biotin-labeled EQEDEPEGDYFEWLE (SEQ ID NO.: 1) peptide (BioSource International, custom synthesis) in assay buffer (50 mM Tris, pH=7.5, 10 mM MgCl2, 0.01% Brij-35, 0.1% BSA, 1 mM EGTA, 5% Glycerol and 5 mM DTT) for 60 minutes at 25° C. The reactions were stopped by the addition of 10 μL of detection buffer (50 mM Tris, pH 7.8, 0.5 mg/mL BSA, 150 mM NaCl), supplemented with EDTA, LANCE Eu-W1024 anti-phosphotyrosine (PY20), (PerkinElmer, Catalog #AD0067) and Streptavidin SureLight APC (PerkinElmer Catalog #CR130-100), for a final concentration of 15 mM, 1.5 nM and 75 nM, respectively. HTRF signals were read after 30 minutes incubation at room temperature on a PHERAstar FS plate reader (BMG LAB TECH). Data was analyzed with IDBS XLfit and GraphPad Prism 5.0 software using a four parameter dose response curve to determine IC50 for each compound.

Chain of pseudo-kinase domain (JH2, amino-acids 536-812) of human V617F mutant JAK2 (O60674 536-812 V617F/W659A/W777A/F794H): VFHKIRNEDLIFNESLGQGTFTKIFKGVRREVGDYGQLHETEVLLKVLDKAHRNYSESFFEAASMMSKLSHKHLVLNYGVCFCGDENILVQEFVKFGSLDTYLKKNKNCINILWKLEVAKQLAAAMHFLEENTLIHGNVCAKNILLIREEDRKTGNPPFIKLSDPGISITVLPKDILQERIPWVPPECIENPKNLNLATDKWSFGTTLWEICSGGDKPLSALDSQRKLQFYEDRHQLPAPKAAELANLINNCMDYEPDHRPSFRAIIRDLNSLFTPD
Chain of catalytic domain (JH1, amino acids 808-1132) of human JAK2 (O60674 808-1132): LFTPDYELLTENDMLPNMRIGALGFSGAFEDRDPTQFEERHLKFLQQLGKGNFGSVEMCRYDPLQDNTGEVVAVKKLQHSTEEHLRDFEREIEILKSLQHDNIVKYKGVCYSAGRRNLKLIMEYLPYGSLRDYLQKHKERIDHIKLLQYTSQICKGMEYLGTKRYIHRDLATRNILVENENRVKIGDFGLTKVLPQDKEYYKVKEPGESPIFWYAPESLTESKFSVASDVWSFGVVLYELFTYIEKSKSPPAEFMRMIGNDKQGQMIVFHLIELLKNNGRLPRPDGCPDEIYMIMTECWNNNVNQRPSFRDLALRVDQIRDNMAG
Chain of catalytic domain (JH1, amino acids 826-1132) of human JAK2 (O60674 826-1132): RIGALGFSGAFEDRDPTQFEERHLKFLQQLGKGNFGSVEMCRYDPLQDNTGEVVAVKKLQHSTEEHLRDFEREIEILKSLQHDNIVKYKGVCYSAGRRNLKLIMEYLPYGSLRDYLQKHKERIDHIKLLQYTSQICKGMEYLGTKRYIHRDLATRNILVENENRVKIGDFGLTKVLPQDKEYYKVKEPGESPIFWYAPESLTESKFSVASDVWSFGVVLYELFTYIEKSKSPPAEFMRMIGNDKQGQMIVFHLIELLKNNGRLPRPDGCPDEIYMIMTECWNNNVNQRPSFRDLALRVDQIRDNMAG
Chain of pseudo-kinase domain (JH2, amino-acids 536-812) of human Wild Type JAK2 (O60674 536-812 W659A/W777A/F794H): as the sequence (O60674 536-812 V617F/W659A/W777A/F794H) above, with F82V counted along it

Row | SMILES | IC50 [1] | IC50 [2] | IC50 [3] | IC50 [4]
1 | Cc1cc(-c2c(-c3ccc(C(=O)Nc4ccc5oc(C)nc5c4)cc3)c3c4cc(-c5cnn(C)c5)[nH]c4ncc3n(C)c2=O)on1 [Example 26, 4-(6-Methyl-2-(1-methyl-1H-pyrazol-4-yl)-8-(3-methylisoxazol-5-yl)-7-oxo-6,7-dihydro-3H-pyrrolo[3,2-f][1,7]naphthyridin-9-yl)-A-(2-methylbenzo[d]oxazol-5-yl)benzamide] | 100 to 500 nM | ≤ 100 nM | ≤ 100 nM | 100 to 500 nM
2 | COCc1ccc(-c2c(-c3cc(C)no3)c(=O)n(C)c3cnc4[nH]c(-c5cnn(C)c5)cc4c23)cc1 [Example 27, 9-(4-(Methoxymethyl)phenyl)-6-methyl-2-(1-methyl-1H-pyrazol-4-yl)-8-(3-methylisoxazol-5-yl)-3,6-dihydro-7H-pyrrolo[3,2-f][1,7]naphthyridin-7-one] | 100 to 500 nM | ≤ 100 nM | ≤ 100 nM | 100 to 500 nM
3 | Cc1cc(-c2c(-c3ccc(CNC4CCCOC4)cc3)c3c4cc(-c5cnn(C)c5)[nH]c4ncc3n(C)c2=O)on1 (stereo not drawn) [Example 28, 6-Methyl-2-(1-methyl-1H-pyrazol-4-yl)-8-(3-methylisoxazol-5-yl)-9-(4-(((tetrahydro-2H-pyran-3-yl)amino)methyl)phenyl)-3,6-dihydro-7H-pyrrolo[3,2-f][1,7]naphthyridin-7-one] | 100 to 500 nM | ≤ 100 nM | ≤ 100 nM | 100 to 500 nM
4 | COCCN(C)c1ccc(-c2c(-c3cc(C)no3)c(=O)n(C)c3cnc4[nH]c(-c5cnn(C)c5)cc4c23)cc1 [Example 29, 9-(4-((2-Methoxyethyl)(methyl)amino)phenyl)-6-methyl-2-(1-methyl-1H-pyrazol-4-yl)-8-(3-methylisoxazol-5-yl)-3,6-dihydro-7H-pyrrolo[3,2-f][1,7]naphthyridin-7-one] | 100 to 500 nM | ≤ 100 nM | ≤ 100 nM | 100 to 500 nM
5 | Cc1cc(-c2c(-c3ccc(NC4CCOCC4)cc3)c3c4cc(-c5cnn(C)c5)[nH]c4ncc3n(C)c2=O)on1 [Example 30, 6-Methyl-2-(1-methyl-1H-pyrazol-4-yl)-8-(3-methylisoxazol-5-yl)-9-(4-((tetrahydro-2H-pyran-4-yl)amino)phenyl)-3,6-dihydro-7H-pyrrolo[3,2-f][1,7]naphthyridin-7-one] | 500 to 1000 nM | ≤ 100 nM | ≤ 100 nM | 500 to 1000 nM
6 | Cc1cc(-c2c(-c3ccc(-c4cnn(C)c4C)cc3)c3c4cc(-c5cnn(C)c5)[nH]c4ncc3n(C)c2=O)on1 [Example 31, 9-(4-(1,5-Dimethyl-1H-pyrazol-4-yl)phenyl)-6-methyl-2-(1-methyl-1H-pyrazol-4-yl)-8-(3-methylisoxazol-5-yl)-3,6-dihydro-7H-pyrrolo[3,2-f][1,7]naphthyridin-7-one] | 500 to 1000 nM | ≤ 100 nM | ≤ 100 nM | 500 to 1000 nM
7 | Cc1cc(-c2c(-c3ccc(-c4cnn(C)c4CO)cc3)c3c4cc(-c5cnn(C)c5)[nH]c4ncc3n(C)c2=O)on1 [Example 32, 9-(4-(5-(Hydroxymethyl)-1-methyl-1H-pyrazol-4-yl)phenyl)-6-methyl-2-(1-methyl-1H-pyrazol-4-yl)-8-(3-methylisoxazol-5-yl)-3,6-dihydro-7H-pyrrolo[3,2-f][1,7]naphthyridin-7-one] | 100 to 500 nM | ≤ 100 nM | ≤ 100 nM | 100 to 500 nM
8 | Cc1cc(-c2c(C3CCN(S(C)(=O)=O)C3)c3c4cc(-c5cnn(C)c5)[nH]c4ncc3n(C)c2=O)on1 (stereo not drawn) [Example 33, 6-Methyl-2-(1-methyl-1H-pyrazol-4-yl)-8-(3-methylisoxazol-5-yl)-9-(1-(methylsulfonyl)pyrrolidin-3-yl)-3,6-dihydro-7H-pyrrolo[3,2-f][1,7]naphthyridin-7-one] | 100 to 500 nM | ≤ 100 nM | ≤ 100 nM | 100 to 500 nM
9 | CN(C)C(=O)c1ccc(-c2c(-c3cnn(C)c3)[nH]c3ncc4c(cc(Nc5cccc(-c6nnn[nH]6)c5)c(=O)n4C)c23)cc1 [Example 34, 4-(8-((3-(1H-tetrazol-5-yl)phenyl)amino)-6-methyl-2-(1-methyl-1H-pyrazol-4-yl)-7-oxo-6,7-dihydro-3H-pyrrolo[3,2-f][1,7]naphthyridin-1-yl)-N,N-dimethylbenzamide] | 100 to 500 nM | ≤ 100 nM | ≤ 100 nM | 100 to 500 nM
10 | CN(C)C(=O)c1ccc(-c2c(-c3cnn(C)c3)[nH]c3ncc4c(cc(Nc5ccc(Cc6nnn[nH]6)cc5)c(=O)n4C)c23)cc1 [Example 35, 4-(8-((4-((1H-tetrazol-5-yl)methyl)phenyl)amino)-6-methyl-2-(1-methyl-1H-pyrazol-4-yl)-7-oxo-6,7-dihydro-3H-pyrrolo[3,2-f][1,7]naphthyridin-1-yl)-N,N-dimethylbenzamide] | ≤ 100 nM | ≤ 100 nM | ≤ 100 nM | ≤ 100 nM
11 | Cc1ccncc1-c1cc2c3c(-c4ccc(C(=O)N(C)C)cc4)c(-c4cnn(C)c4)[nH]c3ncc2n(C)c1=O [Example 36, N,N-dimethyl-4-(6-methyl-2-(1-methyl-1H-pyrazol-4-yl)-8-(4-methylpyridin-3-yl)-7-oxo-6,7-dihydro-3H-pyrrolo[3,2-f][1,7]naphthyridin-1-yl)benzamide] | ≤ 100 nM | ≤ 100 nM | ≤ 100 nM | ≤ 100 nM
12 | CC(=O)N1CC[C@H](c2cc3c4c(-c5ccccc5)c(-c5ccc(CN6CCC(S(C)(=O)=O)CC6)cc5)[nH]c4ncc3n(C)c2=O)C1 [Example 37, (R)-8-(1-acetylpyrrolidin-3-yl)-6-methyl-2-(4-((4-(methylsulfonyl)piperidin-1-yl)methyl)phenyl)-1-phenyl-3,6-dihydro-7/7-pyrrolo[3,2-f][1,7]naphthyridin-7-one] | ≤ 100 nM | ≤ 100 nM | ≤ 100 nM | ≤ 100 nM
